For two compounds, hygroscopicity results are on record in patent publication US6465515B2, “Solid compositions suitable for oral administration containing non-hydroscopic salts of L-carnitine and alkanoyl L-carnitines” (Sigma-Tau Industrie Farmaceutiche Riunite S.p.A., priority 1998, dated 2002).

A short description of the series: hygroscopicity of the salts. The format is physicochemical. The conditions noted are these: isolated solid.

For `CCC(=O)O[C@H](CC(=O)O)C[N+](C)(C)C` [Example 1, Propionyl L-carnitine Pamoate], the hygroscopicity entry is “non-hygroscopic”.
The same measure for `CC(=O)O[C@H](CC(=O)O)C[N+](C)(C)C` [Example 3, Acetyl L-carnitine Pamoate]: “non-hygroscopic”.
